Measured values as given in ChEMBL document CHEMBL2380247, “Synthesis and biological evaluation of novel aliphatic amido-quaternary ammonium salts for anticancer chemotherapy: part II” (2013).

Experiments:
Assay type in all cases: functional
HCT-15 [1] = assay: Antiproliferative activity against human HCT15 cells at 0.3 uM by SRB assay
PC-3 [2] = assay: Antiproliferative activity against human PC3 cells at 10 uM by SRB assay
PC-3 [3] = assay: Antiproliferative activity against human PC3 cells at 0.1 uM by SRB assay
NUGC-3 [4] = assay: Antiproliferative activity against human NUGC3 cells at 10 uM by SRB assay
ACHN [5] = assay: Antiproliferative activity against human ACHN cells by SRB assay
ACHN [6] = assay: Antiproliferative activity against human ACHN cells at 3 uM by SRB assay
PC-3 [7] = assay: Antiproliferative activity against human PC3 cells at 1 uM by SRB assay
MDA-MB-231 [8] = assay: Antiproliferative activity against human MDA-MB-231 cells at 3 uM by SRB assay
ACHN [9] = assay: Antiproliferative activity against human ACHN cells at 1 uM by SRB assay
HCT-15 [10] = assay: Antiproliferative activity against human HCT15 cells by SRB assay
MDA-MB-231 [11] = assay: Antiproliferative activity against human MDA-MB-231 cells at 0.1 uM by SRB assay
HCT-15 [12] = assay: Antiproliferative activity against human HCT15 cells at 1 uM by SRB assay
NUGC-3 [13] = assay: Antiproliferative activity against human NUGC3 cells at 0.1 uM by SRB assay
ACHN [14] = assay: Antiproliferative activity against human ACHN cells at 10 uM by SRB assay
ACHN [15] = assay: Antiproliferative activity against human ACHN cells at 0.3 uM by SRB assay
MDA-MB-231 [16] = assay: Antiproliferative activity against human MDA-MB-231 cells at 0.3 uM by SRB assay
NCI-H23 [17] = assay: Antiproliferative activity against human NCI-H23 cells at 0.3 uM by SRB assay
HCT-15 [18] = assay: Antiproliferative activity against human HCT15 cells at 3 uM by SRB assay
ACHN [19] = assay: Antiproliferative activity against human ACHN cells at 0.1 uM by SRB assay
NCI-H23 [20] = assay: Antiproliferative activity against human NCI-H23 cells at 3 uM by SRB assay
NUGC-3 [21] = assay: Antiproliferative activity against human NUGC3 cells at 1 uM by SRB assay
NUGC-3 [22] = assay: Antiproliferative activity against human NUGC3 cells by SRB assay
NCI-H23 [23] = assay: Antiproliferative activity against human NCI-H23 cells by SRB assay
PC-3 [24] = assay: Antiproliferative activity against human PC3 cells at 0.3 uM by SRB assay
NCI-H23 [25] = assay: Antiproliferative activity against human NCI-H23 cells at 1 uM by SRB assay
MDA-MB-231 [26] = assay: Antiproliferative activity against human MDA-MB-231 cells at 1 uM by SRB assay
HCT-15 [27] = assay: Antiproliferative activity against human HCT15 cells at 0.1 uM by SRB assay
PC-3 [28] = assay: Antiproliferative activity against human PC3 cells at 3 uM by SRB assay
MDA-MB-231 [29] = assay: Antiproliferative activity against human MDA-MB-231 cells by SRB assay
NCI-H23 [30] = assay: Antiproliferative activity against human NCI-H23 cells at 0.1 uM by SRB assay
HCT-15 [31] = assay: Antiproliferative activity against human HCT15 cells at 10 uM by SRB assay
NUGC-3 [32] = assay: Antiproliferative activity against human NUGC3 cells at 0.3 uM by SRB assay
MDA-MB-231 [33] = assay: Antiproliferative activity against human MDA-MB-231 cells at 10 uM by SRB assay
PC-3 [34] = assay: Antiproliferative activity against human PC3 cells by SRB assay
NCI-H23 [35] = assay: Antiproliferative activity against human NCI-H23 cells at 10 uM by SRB assay
NUGC-3 [36] = assay: Antiproliferative activity against human NUGC3 cells at 3 uM by SRB assay

Row | GI50 (ACHN [5]) [nM] | GI50 (HCT-15 [10]) [nM] | SMILES | growth, % of control at 0.3 µM (HCT-15 [1]) [%] | growth, % of control at 10 µM (PC-3 [2]) [%] | growth, % of control at 0.1 µM (PC-3 [3]) [%] | growth, % of control at 10 µM (NUGC-3 [4]) [%] | growth, % of control at 3 µM (ACHN [6]) [%] | growth, % of control at 1 µM (PC-3 [7]) [%] | growth, % of control at 3 µM (MDA-MB-231 [8]) [%] | growth, % of control at 1 µM (ACHN [9]) [%] | growth, % of control at 0.1 µM (MDA-MB-231 [11]) [%] | growth, % of control at 1 µM (HCT-15 [12]) [%] | growth, % of control at 0.1 µM (NUGC-3 [13]) [%] | growth, % of control at 10 µM (ACHN [14]) [%] | growth, % of control at 0.3 µM (ACHN [15]) [%] | growth, % of control at 0.3 µM (MDA-MB-231 [16]) [%] | growth, % of control at 0.3 µM (NCI-H23 [17]) [%] | growth, % of control at 3 µM (HCT-15 [18]) [%] | growth, % of control at 0.1 µM (ACHN [19]) [%] | growth, % of control at 3 µM (NCI-H23 [20]) [%] | also measured
1 | 270 | 610 | CCCCCCCCCCCCCCCC(=O)N(C)CC[N+](CC)(CC)CC | 83.5 | -24.2 | 87.4 | -50 | -15.6 | 12.6 | 12.6 | 16.7 | 94.3 | 56.7 | 99.2 | -42.5 | 78.5 | 80.4 | 84.9 | 24.6 | 106 | 45.2 | growth, % of control at 1 µM (NUGC-3 [21]): -14.6%; GI50 (NUGC-3 [22]): 160 nM; GI50 (NCI-H23 [23]): 1110 nM; growth, % of control at 0.3 µM (PC-3 [24]): 71.9%; growth, % of control at 1 µM (NCI-H23 [25]): 72.7%; growth, % of control at 1 µM (MDA-MB-231 [26]): 33.1%; growth, % of control at 0.1 µM (HCT-15 [27]): 89.1%; growth, % of control at 3 µM (PC-3 [28]): -5.6%; GI50 (MDA-MB-231 [29]): 360 nM; growth, % of control at 0.1 µM (NCI-H23 [30]): 84%; growth, % of control at 10 µM (HCT-15 [31]): 3.4%; growth, % of control at 0.3 µM (NUGC-3 [32]): 53.4%; growth, % of control at 10 µM (MDA-MB-231 [33]): -17.3%; GI50 (PC-3 [34]): 230 nM; growth, % of control at 10 µM (NCI-H23 [35]): 8.5%; growth, % of control at 3 µM (NUGC-3 [36]): -43.8%
2 | 470 | > 10000 | C=CC[N+](C)(C)CCCN(C)C(=O)CCCCCCCCCCCCCCC | 103 | -11.9 | 98.5 | -30.4 | 30 | 41.9 | 33.8 | 53.3 | 86.5 | 103 | 105 | -6.41 | 77.3 | 88.3 | 94.7 | 81.2 | 81 | 23.9 | growth, % of control at 1 µM (NUGC-3 [21]): 28.1%; GI50 (NUGC-3 [22]): 360 nM; GI50 (NCI-H23 [23]): 680 nM; growth, % of control at 0.3 µM (PC-3 [24]): 98%; growth, % of control at 1 µM (NCI-H23 [25]): 65.5%; growth, % of control at 1 µM (MDA-MB-231 [26]): 66%; growth, % of control at 0.1 µM (HCT-15 [27]): 97.4%; growth, % of control at 3 µM (PC-3 [28]): 7.93%; GI50 (MDA-MB-231 [29]): 800 nM; growth, % of control at 0.1 µM (NCI-H23 [30]): 93.2%; growth, % of control at 10 µM (HCT-15 [31]): 58%; growth, % of control at 0.3 µM (NUGC-3 [32]): 92.8%; growth, % of control at 10 µM (MDA-MB-231 [33]): 11.6%; GI50 (PC-3 [34]): 430 nM; growth, % of control at 10 µM (NCI-H23 [35]): -13.6%; growth, % of control at 3 µM (NUGC-3 [36]): -13.9%
